Ends that are not written are not given here.
Test system: renin
Type: biochemical, hog
Details: for Vmax per Goldblatt unit/ml: average over the renin concentrations used; for Km relative to the tetradecapeptide (times larger): ratio of Km values

Row | Substance | Vmax per Goldblatt unit/ml (pH 7.5, 37.5C) | also measured
1 | Tyr Ileu His Pro Phe His Leu Leu Val Tyr Ser | 9.8 x 10-6 M/min per Goldblatt uni | –
2 | PFHLLVYS | 0.55 x 10-6 M/min per Goldblatt uni | Vm as printed in the Lineweaver-Burk plot of Fig. 4 (value of the figure where it differs from Table I): 0.6 x 10-6 M/min/Goldblatt unit
3 | Ileu His Pro Phe His Leu Leu Val Tyr Ser | 10.9 x 10-6 M/min per Goldblatt uni | –
4 | Val Tyr Ileu His Pro Phe His Leu Leu Val Tyr Ser | 8.9 x 10-6 M/min per Goldblatt uni | Vmax (renin concentration 0.0195 Goldblatt units/ml (so in the source), pH 7.5, 37.5C): 9.1e-07 M/min
5 | HPFHLLVY [his^6-pro^7-phe^8-his^9-leu^10-leu^11-val^12-tyr^13] | 7.6 x 10-6 M/min per Goldblatt uni | Km relative to the tetradecapeptide (times larger): ~ 12 times
6 | Asp Arg Val Tyr Ileu His Pro Phe His Leu Leu Val Tyr Ser [asp^1-arg^2-val^3-tyr^4-ileu^5-his^6-pro^7-phe^8-his^9-leu^10-leu^11-val^12-tyr^13-ser^14] | 10.2 x 10-6 M/min per Goldblatt uni | –
7 | HPFHLLVYS [his^6-pro^7-phe^8-his^9-leu^10-leu^11-val^12-tyr^13-ser^14] | 11.7 x 10-6 M/min per Goldblatt uni | Km relative to the tetradecapeptide (times larger): ~ 12 times
8 | NRVYVHPFHLLVYS [reference compound] | 9.1 x 10-6 M/min per Goldblatt uni | –
9 | HPFHLLV | – | Average Km (mean of the Km values at the two renin concentrations, pH 7.5, 37.5C): eo; Substrate activity with renin (renin 0.183 Goldblatt units/ml, pH 7.5, 37.5C): no hydrolysis occurred

Reference: paper PMC2138508 (The Journal of Experimental Medicine, 1968)
